From ChEMBL document CHEMBL5113404, “Design, synthesis and biological evaluation of new parbendazole derivatives for the treatment of HNSCC” (Eur J Med Chem, 2022)
Calls of active or inactive are those of the source. The rule behind the calls is not given here.

Key:
Tubulin = experiment: Inhibition of tubulin polymerization (unknown origin) by fluorescence based analysis; type: protein-complex assay, Homo sapiens
CAL-27 = experiment: Antiproliferative activity against human CAL-27 cells assessed as cell growth inhibition incubated for 72 hrs by CCK-8 assay; type: functional, cell-based; conditions: CAL-27, 72 h
FaDu = experiment: Antiproliferative activity against human FaDu cells assessed as cell growth inhibition incubated for 72 hrs by CCK-8 assay; type: functional, cell-based
Tubulin (Homo sapiens) = Tubulin (Homo sapiens) (UniProt P68371+Q9H4B7+P0DPH7+P68366+Q13509+Q71U36+P04350+Q3ZCM7+P07437+P68363+Q9BQE3+Q6PEY2+Q13885+Q9BVA1+Q9BUF5); experiment: Inhibition of tubulin polymerization (unknown origin) at 20 micromol/L by fluorescence based analysis; type: protein-complex assay; conditions: dose 20.0 µmol/L
[1] = Antiproliferative activity against human HN-6 cells assessed as cell growth inhibition incubated for 72 hrs by CCK-8 assay; type: functional, cell-based; conditions: HN-6, 72 h
[2] = Induction of apoptosis in human HN-6 cells assessed as early apoptotic cells at 1 micromol/L incubated for 24 hrs by Annexin-V/FITC-PI staining based flow cytometry analysis (reference value: 2.04%); type: functional; conditions: dose 1 µmol/L, at 1 µM
[3] = Induction of apoptosis in human HN-6 cells assessed as late apoptotic cells at 0.1 micromol/L incubated for 24 hrs by Annexin-V/FITC-PI staining based flow cytometry analysis (reference value: 8.81%); type: functional; conditions: dose 0.1 µmol/L, at 0.1 µM
HN-6 [4] = experiment: Antitumor activity against human HN-6 cells xenografted in mouse assessed as reduction on tumor growth at 80 mg/kg,IG administered daily for 2 weeks; type: functional, organism-based
[5] = Cytotoxicity against human HFF-1 clls assessed as reduction in cell viability incubated for 72 hrs by CCK-8 assay; type: toxicity, cell-based; conditions: HFF-1 cells
[6] = Induction of apoptosis in human HN-6 cells assessed as necrotic cells at 0.1 micromol/L incubated for 24 hrs by Annexin-V/FITC-PI staining based flow cytometry analysis (reference value: 2.08%); type: functional; conditions: dose 0.1 µmol/L, at 0.1 µM
[7] = Acute toxicity in Kunming mouse assessed as death at 1 g/Kg,IG after 15 days of administration; conditions: in vivo, po, 1000 mg/kg, 360 h, time 15 day
[8] = Antimigratory activity in human HN-6 cells assessed as inhibition of cell migration at 0.1 micromol/L measured after 24 hrs by scratch wound assay based fluorescence microscope analysis; type: functional; conditions: HN-6, 24 h, dose 0.1 µmol/L
HN-6 [9] = experiment: Inhibition of cell invasion in human HN-6 cells at 200 to 500 nmol/L incubated for 24 hrs by crystal violet staining based transwell assay; type: functional; conditions: dose 200-500 nmol/L
[10] = Induction of apoptosis in human HN-6 cells assessed as viable cells at 1 micromol/L incubated for 24 hrs by Annexin-V/FITC-PI staining based flow cytometry analysis (reference value: 97.26%); type: functional; conditions: HN-6, 24 h, dose 1 µmol/L, read-out: Activity
[11] = AUC (0 to t) in rat at 100 mg/kg,IG measured upto 24 hrs by HPLC analysis; type: ADME, organism-based; set-up: dose 100 mg/kg, time < 24 hrs, route ig; conditions: in vivo, po
[12] = Induction of apoptosis in human HN-6 cells assessed as necrotic cells at 1 micromol/L incubated for 24 hrs by Annexin-V/FITC-PI staining based flow cytometry analysis (reference value: 2.08%); type: functional; conditions: dose 1 µmol/L, at 1 µM
[13] = Induction of apoptosis in human HN-6 cells assessed as late apoptotic cells at 1 micromol/L incubated for 24 hrs by Annexin-V/FITC-PI staining based flow cytometry analysis (reference value: 8.81%); type: functional; conditions: dose 1 µmol/L, at 1 µM
[14] = Induction of apoptosis in human HN-6 cells assessed as early apoptotic cells at 0.1 micromol/L incubated for 24 hrs by Annexin-V/FITC-PI staining based flow cytometry analysis (reference value: 2.04%); type: functional; conditions: dose 0.1 µmol/L, at 0.1 µM
[15] = Half life in rat at 100 mg/kg,IG measured upto 24 hrs by HPLC analysis; type: ADME, organism-based; conditions: in vivo, po
[16] = Acute toxicity in Kunming mouse assessed as adverse effect at 1 g/Kg,IG after 15 days of administration; conditions: in vivo, po, 1000 mg/kg, 360 h, time 15 day
[17] = Induction of cell cycle arrest in human HN-6 cells assessed as accumulation of cells at S phase at 0.1 micromol/L incubated for 24 hrs by PI staining based flow cytometry analysi (reference value: 31.19%); type: functional; conditions: dose 0.1 µmol/L, at 0.1 µM
[18] = Cmax in rat at 100 mg/kg,IG measured upto 24 hrs by HPLC analysis; type: ADME, organism-based; set-up: dose 100 mg/kg, time < 24 hrs, route ig; conditions: in vivo, po
[19] = Induction of cell cycle arrest in human HN-6 cells assessed as accumulation of cells at G1 phase at 0.1 micromol/L incubated for 24 hrs by PI staining based flow cytometry analysi (reference value: 45.33%); type: functional; conditions: dose 0.1 µmol/L, at 0.1 µM
[20] = Induction of apoptosis in human HN-6 cells assessed as viable cells at 0.1 micromol/L incubated for 24 hrs by Annexin-V/FITC-PI staining based flow cytometry analysis (reference value: 97.26%); type: functional; conditions: HN-6, 24 h, dose 0.1 µmol/L, read-out: Activity
[21] = Induction of cell cycle arrest in human HN-6 cells assessed as accumulation of cells at S phase at 0.1 micromol/L incubated for 24 hrs by PI staining based flow cytometry analysi (reference value: 32.12%); type: functional; conditions: dose 0.1 µmol/L, at 0.1 µM
Mus musculus [22] = experiment: Antitumor activity against human HN-6 cells xenografted in mouse serum assessed as reduction on CYFRA21-1 level at 80 mg/kg,IG administered daily for 2 weeks by ELISA; type: functional, organism-based
Mus musculus [23] = experiment: Antitumor activity against human HN-6 cells xenografted in mouse serum assessed as reduction on TPS level at 80 mg/kg,IG administered daily for 2 weeks by ELISA; type: functional, organism-based
[24] = Acute toxicity in mouse xenografted with human HN-6 cells assessed as body weight loss at 80 mg/kg,IG administered daily for 2 weeks; type: organism-based; conditions: in vivo, po, 336 h
Mus musculus [25] = experiment: Antitumor activity against human HN-6 cells xenografted in mouse serum assessed as reduction on SCCAg level at 80 mg/kg,IG administered daily for 2 weeks by ELISA; type: functional, organism-based
[26] = Tmax in rat at 100 mg/kg,IG measured upto 24 hrs by HPLC analysis; type: ADME, organism-based; conditions: in vivo, po
[27] = Acute toxicity in IG dosed Kunming mouse assessed as lethal dose after 15 days of administration; type: organism-based; conditions: in vivo, po, time 15 day
HN-6 [28] = experiment: Induction of cell morphological changes in human HN-6 cells assessed as decrease in tubulin network around nucleus at 100 nmol/L incubated for 24 hrs by DAPI staining based confocal microscopy analysis; type: functional

## CCCCc1ccc2nc(NC(=O)OC(C)CC)[nH]c2c1 (stereo not drawn)
Tubulin
  IC50: 1620 nM
CAL-27
  IC50: 171 nM
FaDu; read-out: IC50
  IC50: 154 nM
Tubulin (Homo sapiens)
  inhibition: 99.7%
[1]
  IC50: 74.6 nM

## CCCCCCCOC(=O)Nc1nc2ccc(CCCC)cc2[nH]1
Tubulin (Homo sapiens)
  inhibition: 0%
[1]
  IC50: > 2000 nM

## CCCCc1ccc2nc(NC(=O)NC(C)C)[nH]c2c1
Tubulin (Homo sapiens)
  inhibition: 9.65%
[1]
  IC50: 856 nM

## CCCCOC(=O)Nc1nc2ccc(CCCC)cc2[nH]1
Tubulin (Homo sapiens)
  inhibition: 44.1%
[1]
  IC50: 254 nM

## CCCCc1ccc2nc(NC(=O)OCc3ccccc3)[nH]c2c1
Tubulin (Homo sapiens)
  inhibition: 10.5%
[1]
  IC50: > 2000 nM

## CCCCCCNC(=O)Nc1nc2ccc(CCCC)cc2[nH]1
Tubulin (Homo sapiens)
  inhibition: 12.5%
[1]
  IC50: 1400 nM

## CCCCc1ccc2nc(NC(=O)OC3CCCC3)[nH]c2c1
Tubulin (Homo sapiens)
  inhibition: 8.6%
[1]
  IC50: 1690 nM

## CCCCc1ccc2nc(NC(=O)c3ccco3)[nH]c2c1
Tubulin
  IC50: 16200 nM
Tubulin (Homo sapiens)
  inhibition: 57.7%
[1]
  IC50: 349 nM

## CC(C)OC(=O)Nc1nc2cc(F)c(F)cc2[nH]1
Tubulin (Homo sapiens)
  inhibition: 12.6%
[1]
  IC50: 1370 nM

## C=CCOC(=O)Nc1nc2ccc(CCCC)cc2[nH]1
[2]
  Activity: 12.28%
[3]
  Activity: 12.09%
HN-6 [4]
  Activity: Active
Tubulin
  IC50: 4410 nM
[5]
  IC50 at 72 h: > 20000 nM
[6]
  Activity: 3.77%
[7]
  Activity: Non-Toxic
[8]
  inhibition at 0.1 µM: 8.1%
HN-6 [9]
  inhibition: Active
[10]
  viability at 1 µM: 60.8%
[11]
  AUC(0-t) at 24 h: 386 ng·h/mL
[12]
  Activity: 5.48%
[13]
  Activity: 21.43%
[14]
  Activity: 4.98%
[15]
  half-life: 2.19 h
CAL-27
  IC50: 118 nM
[16]
  Activity: Non-Toxic
[17]
  Activity: 64.65%
[18]
  Cmax: 83 ng/mL
[19]
  Activity: 14.51%
[20]
  viability at 0.1 µM: 79.3%
FaDu; read-out: IC50
  IC50: 126 nM
Tubulin (Homo sapiens)
  inhibition: 86.6%
[21]
  Activity: 19.14%
Mus musculus [22]
  Activity: Active
Mus musculus [23]
  Activity: Active
[24]
  Activity: Non-Toxic
Mus musculus [25]
  Activity: Active
[1]
  IC50: 46.9 nM
[26]
  Tmax: 4 h
[27]
  LD50 at 360 h: > 1000 mg/kg
HN-6 [28]
  Activity: Active

## CCCCc1ccc2nc(NC(=O)NCCC)[nH]c2c1
Tubulin (Homo sapiens)
  inhibition: 2.99%
[1]
  IC50: 549 nM

## CCCCc1ccc2nc(NC(=O)OCC(C)C)[nH]c2c1
Tubulin (Homo sapiens)
  inhibition: 34.4%
[1]
  IC50: 412 nM

## C=CCNC(=O)Nc1nc2ccc(CCCC)cc2[nH]1
CAL-27
  IC50: 216 nM
FaDu; read-out: IC50
  IC50: 282 nM
Tubulin (Homo sapiens)
  inhibition: 8.4%
[1]
  IC50: 392 nM

## CCCCc1ccc2nc(NC(=O)OCC(CC)CCCC)[nH]c2c1 (stereo not drawn)
Tubulin (Homo sapiens)
  inhibition: 9.96%
[1]
  IC50: > 2000 nM

## CC(C)OC(=O)Nc1nc2ccc(F)cc2[nH]1
Tubulin (Homo sapiens)
  inhibition: 0.85%
[1]
  IC50: 1470 nM

## CCCCc1ccc2nc(NC(=O)NC(C)(C)C)[nH]c2c1
Tubulin (Homo sapiens)
  inhibition: 9.79%
[1]
  IC50: > 2000 nM

## CC(C)OC(=O)Nc1nc2ccc(C#N)cc2[nH]1
Tubulin (Homo sapiens)
  inhibition: 3.43%
[1]
  IC50: > 2000 nM

## COc1cc2c(c(OC)c1OC)-c1ccc(OC)c(=O)cc1[C@@H](NC(C)=O)CC2 [COLCHICINE]
CAL-27
  IC50: 37.5 nM
FaDu
  IC50: 22.8 nM
[1]
  IC50: 19.5 nM
